According to ChEMBL document CHEMBL1201862, “PubChem BioAssay data set” (2004):
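Where inhibition never reached the appropriate level, the endpoint shown equals the highest concentration tested. Otherwise, values were interpolated linearly from a five-concentration, 48-hour dose response in 96-well plates. The concentration for 50% growth inhibition is given as GI50.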 The source made the active and inactive calls. Rule as the data show it: active = GI50 up to about 1.1 µM and inactive = higher.

Assays:
Assay in all cases: NCI tumour cell line growth inhibition, 48 h
[1] = tested on: 786-0
[2] = tested on: PC-3
[3] = tested on: SK-MEL-2
[4] = tested on: LOX IMVI
[5] = tested on: SF-539
[6] = tested on: MCF7
[7] = tested on: HCT-116
[8] = tested on: MOLT-4
[9] = tested on: HCC 2998
[10] = tested on: BT-549
[11] = tested on: MDA-MB-231
[12] = tested on: HOP-92
[13] = tested on: CAKI-1
[14] = tested on: KM12
[15] = tested on: Malme-3M
[16] = tested on: UACC-62
[17] = tested on: NCI/ADR-RES
[18] = tested on: U-251
[19] = tested on: Hs-578T
[20] = tested on: SF-268

Measured: GI50

CC[N+]1(C)CCC(O)(/C=C/c2ccc(OC)cc2)C(C(=O)/C=C/c2ccc(OC)cc2)C1 (stereo not given)
inactive: [1] 3.13 µM | [2] 20.1 µM | [3] 19 µM | [4] 2.64 µM | [5] 5.35 µM | [6] 4.29 µM | [7] 12.7 µM | [8] 1.94 µM | [9] 20 µM | [10] 20.1 µM | [11] 23.9 µM | [12] 15.5 µM | [13] 1.88 µM | [14] 4.13 µM | [15] 14.4 µM | [16] 17.8 µM | [17] 27.1 µM | [18] 15.6 µM | [19] 11.7 µM | [20] 10.6 µM

N#CCN1CCCN(CC#N)CCN(CC#N)CCCN(CC#N)CC1
inactive: [1] > 100 µM | [2] > 100 µM | [3] > 100 µM | [4] 16.7 µM | [5] > 100 µM | [6] > 100 µM | [7] > 100 µM | [8] > 100 µM | [9] > 100 µM | [10] > 100 µM | [11] > 100 µM | [12] > 100 µM | [13] > 100 µM | [14] 39.9 µM | [15] > 100 µM | [16] > 100 µM | [17] > 100 µM | [18] > 100 µM | [19] > 100 µM | [20] > 100 µM

Nc1nc(Nc2ccccc2)sc1C(=O)c1cccs1
inactive: [1] 11.5 µM | [2] 15.9 µM | [3] 12.7 µM | [4] 11.2 µM | [5] 10.7 µM | [6] 8.13 µM | [7] 4.06 µM | [8] 6.75 µM | [9] 17 µM | [10] 15.2 µM | [11] 28.7 µM | [12] 30.3 µM | [13] 14.4 µM | [14] 4.19 µM | [15] 22.1 µM | [16] 15.7 µM | [17] 21.2 µM | [18] 15.3 µM | [19] 15.8 µM | [20] 18.2 µM

COc1cc2c3c(c1O)C1(C=CC(=O)C=C1)CC3N(C)CC2 (stereo not given) [GLAZIOVINE]
inactive: [1] 3.17 µM | [2] 14.3 µM | [3] 10.7 µM | [4] 2.77 µM | [5] 10.1 µM | [6] 5.14 µM | [7] 3.81 µM | [8] 4.26 µM | [9] 12.4 µM | [10] 5.78 µM | [11] 4.86 µM | [12] 11.6 µM | [13] 7.29 µM | [14] 4.48 µM | [15] 11.3 µM | [16] 11.1 µM | [17] 2.72 µM | [18] 4.26 µM | [19] 14.4 µM | [20] 11 µM
